The test relates to FADD-deficient Jurkat cells. In words: necroptosis assay: FADD-deficient Jurkat cells treated with TNFα, cell viability. As to conditions: for activity in the necroptosis assay, in words / Max Prot: FADD-deficient Jurkat cells treated with TNFα; for Max Prot: max viability obtained in the presence of a compound; call rule not given here. It counts as cell-based, human. From the text:
Herein we describe the structure activity analysis of Nec-5 analogs.

Where [1] appears, read: effective concentration for half-maximum response, inhibition of necroptosis in FADD-deficient Jurkat cells treated with TNFα, read-out: EC50.
[2] abbreviates: effective concentration for half-maximum response, inhibition of necroptosis in FADD-deficient Jurkat cells treated with TNFα.

Entries after “also recorded” stand apart in the source; their conditions may differ. Read-outs that look alike come from different tables or passages of the source.

For the molecule `COc1ccc(-n2c(SCC#N)nc3sc4c(c3c2=O)CCCC4)cc1` [Compound 1, 3-p-methoxyphenyl-5,6-tetra-methylenothieno-[2,3-d]-pyrimidin-4-one-2-mercaptoethylcyanide], the “activity in the necroptosis assay, in words” value (“activity” for short) is reported as “prevents the death” and the “Max Prot” value was 100%. Moreover, it took 0.24 µM to reach a half-maximal effect (Homo sapiens, Jurkat) (EC50).

In the case of `COc1ccc(-n2c(SC)nc3sc4c(c3c2=O)CCCC4)cc1` [Compound 6], the “activity” value was “reserves its activity to a significant extent” and the “Max Prot” value is on record as 71%. Further, the EC50 (in general, the concentration that produces a half-maximal response) under setting [1] was 0.24 µM. For `CCSc1nc2sc3c(c2c(=O)n1-c1ccc(OC)cc1)CCCC3` [Compound 7], the EC50 result under setting [2] is “inactive”. Same read-out and setting: the result for `CCCSc1nc2sc3c(c2c(=O)n1-c1ccc(OC)cc1)CCCC3` [Compound 8] reads “inactive”. Still for that read-out and setting: as for `CCCCSc1nc2sc3c(c2c(=O)n1-c1ccc(OC)cc1)CCCC3` [Compound 9], the entry is “inactive”; as for `CCCCCSc1nc2sc3c(c2c(=O)n1-c1ccc(OC)cc1)CCCC3` [Compound 10], “inactive”. On the same count and under the same terms, the result for `CCCCCCSc1nc2sc3c(c2c(=O)n1-c1ccc(OC)cc1)CCCC3` [Compound 11] reads “inactive”. In the case of `C=CCSc1nc2sc3c(c2c(=O)n1-c1ccc(OC)cc1)CCCC3` [Compound 12], the EC50 entry under setting [2] was “inactive”.

Consider `C#CCSc1nc2sc3c(c2c(=O)n1-c1ccc(OC)cc1)CCCC3` [Compound 13], for which the “activity” value is “exhibited some activity” and the “Max Prot” value is on record as 80.7%. The EC50 under setting [1] came to 6.08 µM. With `COc1ccc(-n2c(SCc3ccccc3)nc3sc4c(c3c2=O)CCCC4)cc1` [Compound 14], the “activity” value is “completely destroyed the activity”. Also, under setting [2], the concentration giving a half-maximal response (EC50) entry is “inactive”. In the case of `COc1ccc(-n2c(SCc3ccc(C)cc3)nc3sc4c(c3c2=O)CCCC4)cc1` [Compound 15], under setting [2], the half-maximal effective concentration (EC50) result was “inactive”. In the case of `COc1ccc(CSc2nc3sc4c(c3c(=O)n2-c2ccc(OC)cc2)CCCC4)cc1` [Compound 16], the EC50 result under setting [2] is “inactive”. In the case of `COc1ccc(-n2c(SCc3ccc([N+](=O)[O-])cc3)nc3sc4c(c3c2=O)CCCC4)cc1` [Compound 17], the EC50 result under setting [2] is “inactive”. Same read-out and setting: as for `COc1ccc(-n2c(SCC(C)=O)nc3sc4c(c3c2=O)CCCC4)cc1` [Compound 18], the entry is “inactive”. As to `COC(=O)CSc1nc2sc3c(c2c(=O)n1-c1ccc(OC)cc1)CCCC3` [Compound 19], the “activity” value is “completely destroyed the activity”. Also, under setting [2], the EC50 result was “inactive”. For `COc1ccc(-n2c(SCC(N)=O)nc3sc4c(c3c2=O)CCCC4)cc1` [Compound 20], under setting [2], the EC50 entry was “inactive”. Regarding `COc1ccc(-n2c(SC(C)=O)nc3sc4c(c3c2=O)CCCC4)cc1` [Compound 21], under setting [2], the EC50 result is “inactive”.

Consider `CCCC(=O)Sc1nc2sc3c(c2c(=O)n1-c1ccc(OC)cc1)CCCC3` [Compound 22], for which the half-maximal effective concentration (EC50) entry under setting [2] is “inactive”. Still for that read-out and setting: the result for `COc1ccc(-n2c(SC(=O)c3ccccc3)nc3sc4c(c3c2=O)CCCC4)cc1` [Compound 23] reads “inactive”.

For `COc1ccc(-n2c(SCCC#N)nc3sc4c(c3c2=O)CCCC4)cc1` [Compound 24], the “activity” value is “retained some activity” and the “Max Prot” value stood at 70%. In addition, the EC50 under setting [1] was determined as 5.28 µM. The corresponding values for `COc1ccc(-n2c(SCCl)nc3sc4c(c3c2=O)CCCC4)cc1` [Compound 25] are “exhibited some activity”, 85% and 2.22 µM.

For the molecule `COc1ccc(-n2c(SC[N+](=O)[O-])nc3sc4c(c3c2=O)CCCC4)cc1` [Compound 26], the “activity” value was “completely destroyed the activity”. Also, the EC50 result under setting [2] was “inactive”. In the case of `COc1ccc(-n2c(SCC(=O)Nc3ccccc3C(F)(F)F)nc3sc4c(c3c2=O)CCCC4)cc1` [Compound 27], under setting [2], the concentration giving a half-maximal response (EC50) entry is “inactive”. The same measure, in the same setting: the result for `COc1ccc(-n2c(SCC(C)O)nc3sc4c(c3c2=O)CCCC4)cc1` (centres unmarked) [Compound 28] reads “inactive”; that for `COc1ccc(-n2c(SCC(=O)O)nc3sc4c(c3c2=O)CCCC4)cc1` [Compound 29], “inactive”.

As to `COc1ccc(-n2c([S+](C)[O-])nc3sc4c(c3c2=O)CCCC4)cc1` (centres unmarked) [Compound 30], the “activity” value was “complete loss of activity”. In addition, the EC50 entry under setting [2] was “inactive”.

Take `COc1ccc(-n2c(S(C)(=O)=O)nc3sc4c(c3c2=O)CCCC4)cc1` [Compound 31]: the “activity” value was “complete loss of activity”. For the same molecule, the EC50 result under setting [2] is “inactive”. Turning to `N#CCSc1nc2sc3c(c2c(=O)n1-c1ccccc1)CCCC3` [Compound 32], the “activity” value is “inactive”. The EC50 result under setting [2] was “inactive”.

`COc1ccccc1-n1c(SCC#N)nc2sc3c(c2c1=O)CCCC3` [Compound 33]: the “Max Prot” value is 51.2%. In addition, the EC50 under setting [1] was 17.8 µM. For `COc1cccc(-n2c(SCC#N)nc3sc4c(c3c2=O)CCCC4)c1` [Compound 34], in that order: 87.7% and 1.46 µM. On to `CCOc1ccc(-n2c(SCC#N)nc3sc4c(c3c2=O)CCCC4)cc1` [Compound 35], for which the “activity” value was “retained some activity; also recorded: showed significant higher activity compared to compound (154)” and the “Max Prot” value is given as 83.8%. The EC50 under setting [1] was found to be 0.55 µM. With `N#CCSc1nc2sc3c(c2c(=O)n1-c1ccc(OCc2ccccc2)cc1)CCCC3` [Compound 36], the EC50 entry under setting [2] is “inactive”. Still for that read-out and setting: as for `Cc1ccccc1-n1c(SCC#N)nc2sc3c(c2c1=O)CCCC3` [Compound 37], the entry is “inactive”.

With `Cc1ccc(-n2c(SCC#N)nc3sc4c(c3c2=O)CCCC4)cc1` [Compound 38], the “activity” value is “retained some activity” and the “Max Prot” value was found to be 48.6%. The EC50 under setting [1] was determined as 1.8 µM. For `N#CCSc1nc2sc3c(c2c(=O)n1-c1ccc(F)cc1)CCCC3` [Compound 39], in that order: “retained significant activity; also recorded: showed substantial activity; also recorded: decreased activity”, 85.1% and 0.24 µM. `N#CCSc1nc2sc3c(c2c(=O)n1-c1cccc(Cl)c1)CCCC3` [Compound 40]: the “Max Prot” value was 66.9%. The EC50 under setting [1] worked out at 5.1 µM. On to `N#CCSc1nc2sc3c(c2c(=O)n1-c1ccc(Cl)cc1)CCCC3` [Compound 41], for which the “activity” value is on record as “activity significantly decreased” and the “Max Prot” value worked out at 55.0%. The EC50 under setting [1] was determined as 8.5 µM. As to `N#CCSc1nc2sc3c(c2c(=O)n1-c1ccc(Br)cc1)CCCC3` [Compound 42], the “activity” value is listed as “activity significantly decreased”. In addition, under setting [2], the EC50 result was “inactive”. With `Cc1ccc(-n2c(SCC#N)nc3sc4c(c3c2=O)CCCC4)cc1C` [Compound 43], the “Max Prot” value amounted to 45.0%. Besides, the EC50 under setting [1] was 16.7 µM. The corresponding values for `N#CCSc1nc2sc3c(c2c(=O)n1-c1ccc(Cl)c(Cl)c1)CCCC3` [Compound 44] are 39.0% and 5.7 µM.

Turning to `N#CCSc1nc2sc3c(c2c(=O)n1-c1ccc(F)c(F)c1)CCCC3` [Compound 45], under setting [2], the EC50 result was “inactive”.

On to `COc1ccc(-n2c(SCC#N)nc3sc4c(c3c2=O)CCCC4)c(OC)c1` [Compound 46], for which the “activity” value was “eliminated activity”. Under setting [2], the half-maximal effective concentration (EC50) result is “inactive”. For `COc1ccc(-n2c(SCC#N)nc3sc4c(c3c2=O)CCCC4)cc1OC` [Compound 47], the “Max Prot” value came to 57.0%. Further, the concentration for a half-maximal effect (EC50) under setting [1] worked out at 5.7 µM. Regarding `N#CCCSc1nc2sc3c(c2c(=O)n1-c1ccc2c(c1)OCO2)CCCC3` [Compound 48, 3-(3′,4′)-methylene-dioxyphenyl-5,6-tetramethylenothieno[2,3-d]pyrimidin-4-one-2-mercaptoethylcyanide], the “activity” value is recorded as “showed good activity; also recorded: showed substantial activity; also recorded: showed significant activity” and the “Max Prot” value is recorded as 100%. For the same molecule, the EC50 under setting [1] turned out to be 0.89 µM.

As to `CSc1ccc(-n2c(SCC#N)nc3sc4c(c3c2=O)CCCC4)cc1` [Compound 49], the “Max Prot” value came out at 70.0%. The concentration for a half-maximal effect (EC50) under setting [1] was 2.33 µM. Turning to `Cc1cc(Cl)ccc1-n1c(SCC#N)nc2sc3c(c2c1=O)CCCC3` [Compound 50], under setting [2], the EC50 entry was “inactive”. Consider `N#CCSc1nc2sc3c(c2c(=O)n1-c1ccc(OC(F)(F)F)cc1)CCCC3` [Compound 51], for which the “activity” value is listed as “loss of activity”. The EC50 result under setting [2] was “inactive”.

Regarding `CSc1nc2sc3c(c2c(=O)n1-c1ccc(OCc2ccccc2)cc1)CCCC3` [Compound 52], the EC50 result under setting [2] is “inactive”.

`CSc1nc2sc3c(c2c(=O)n1-c1ccc(F)cc1)CCCC3` [Compound 53]: the “activity” value is “showed some activity” and the “Max Prot” value is 61.2%. In addition, the EC50 under setting [1] was 1.57 µM. Turning to `CSc1nc2sc3c(c2c(=O)n1-c1ccc(Br)cc1)CCCC3` [Compound 54], under setting [2], the concentration giving a half-maximal response (EC50) result is “inactive”. As for `CSc1nc2sc3c(c2c(=O)n1-c1ccc(C)c(C)c1)CCCC3` [Compound 55], the “Max Prot” value amounted to 38.0%. Besides, the EC50 under setting [1] is 16.7 µM. Consider `CSc1nc2sc3c(c2c(=O)n1-c1ccc(Cl)c(Cl)c1)CCCC3` [Compound 56], for which, under setting [2], the EC50 entry was “inactive”. The same measure, in the same setting: as for `COc1ccc(-n2c(SC)nc3sc4c(c3c2=O)CCCC4)c(OC)c1` [Compound 57], the entry is “inactive”. As to `COc1ccc(-n2c(SC)nc3sc4c(c3c2=O)CCCC4)cc1OC` [Compound 58], the “activity” value is “showed some activity” and the “Max Prot” value amounted to 54.5%. The EC50 under setting [1] was 16.7 µM.

These data come from patent publication US20140024662A1, “COMPOUNDS, SCREENS, AND METHODS OF TREATMENT” (Shanghai Institute of Organic Chemistry, priority 2006, published 2014).
